Test results reported in ChEMBL document CHEMBL5579865, “Discovery of Broad-Spectrum Herpes Antiviral Oxazolidinone Amide Derivatives and Their Structure-Activity Relationships” (ACS Med Chem Lett, 2024).
Converted amounts (≈) assume the structure as drawn. The source made the active and inactive calls. The rule behind the calls is not given here.

How the values were obtained:
[1] = Unbound clearance in Wistar rat at 1 mg/kg,iv administration; type: ADME, organism-based; conditions: in vivo
[2] = test system: Human alphaherpesvirus 1; assay: Antiviral activity against HSV-1 F strain intranasally infected in BALB/c mouse assessed as increase in mouse survival rate at 30 mg/kg,po bid administrated 2 days before viral infection measured after 2 days; type: functional, organism-based; conditions: time 2.0 day
[3] = Inhibition of VZV DNA polymerase extracted from baculovirus infected Sf21 cells using Heterodimeric nucleic acid as substrate preincubated with enzyme for 30 mins followed by substrate and dATP addition measured after 60 mins by biotinylated UTP incorporation based AlphaLISA assay; set-up: species or system Human alphaherpesvirus 3
[4] = test system: Human alphaherpesvirus 1; assay: Antiviral activity against HSV-1 F strain intranasally infected in BALB/c mouse assessed as reduction in viral burden in lung at 30 to 150 mg/kg,po bid administration measured after 4 days; type: functional, organism-based; conditions: dose 30-150 mg/kg, time 4.0 day
[5] = test system: Human betaherpesvirus 5; assay: Antiviral activity against HCMV AD169 infected in human MRC5 cells assessed as reduction in viral replication incubated for 72 hrs in presence of 50 % serum by qRT-PCR analysis; type: functional, organism-based; conditions: Human betaherpesvirus 5, AD169, MRC5, 72 h; read-out: EC50
[6] = test system: Human alphaherpesvirus 3; assay: Antiviral activity against VZV Street infected in human MeWo cells assessed as reduction in viral replication incubated for 72 hrs by qRT-PCR analysis; type: functional, organism-based; conditions: Human alphaherpesvirus 3, Street, MeWo, 72 h; read-out: EC50
[7] = MRT in Wistar rat at 1 mg/kg,iv or 10 mg/kg,po administration; type: ADME, organism-based; conditions: in vivo
[8] = test system: Human alphaherpesvirus 1; assay: Antiviral activity against HSV-1 F strain intranasally infected in BALB/c mouse assessed as increase in mouse survival rate at 150 mg/kg,po bid administration for 7 days relative to control; type: functional; conditions: Human alphaherpesvirus 1, F strain, 168 h, time 7 day
[9] = test system: Cytomegalovirus; assay: Antiviral activity against Cytomegalovirus Smith intraperitoneally infected in BALB/c mouse assessed as reduction in viral burden in salivary gland at 30 mg/kg,po bid administration measured after 10 days by plaque assay; type: functional, organism-based; conditions: route ip, time 10.0 day
[10] = Solubility in PBS at pH 7; type: physicochemical
[11] = Inhibition of Inward-rectifier potassium channel (unknown origin); set-up: species or system Homo sapiens
[12] = biological target: Voltage-gated inwardly rectifying potassium channel KCNH2 (Homo sapiens, UniProt Q12809); assay: Inhibition of hERG by patch-clamp assay; type: toxicity
Sequence of Voltage-gated inwardly rectifying potassium channel KCNH2 (Q12809 whole entry): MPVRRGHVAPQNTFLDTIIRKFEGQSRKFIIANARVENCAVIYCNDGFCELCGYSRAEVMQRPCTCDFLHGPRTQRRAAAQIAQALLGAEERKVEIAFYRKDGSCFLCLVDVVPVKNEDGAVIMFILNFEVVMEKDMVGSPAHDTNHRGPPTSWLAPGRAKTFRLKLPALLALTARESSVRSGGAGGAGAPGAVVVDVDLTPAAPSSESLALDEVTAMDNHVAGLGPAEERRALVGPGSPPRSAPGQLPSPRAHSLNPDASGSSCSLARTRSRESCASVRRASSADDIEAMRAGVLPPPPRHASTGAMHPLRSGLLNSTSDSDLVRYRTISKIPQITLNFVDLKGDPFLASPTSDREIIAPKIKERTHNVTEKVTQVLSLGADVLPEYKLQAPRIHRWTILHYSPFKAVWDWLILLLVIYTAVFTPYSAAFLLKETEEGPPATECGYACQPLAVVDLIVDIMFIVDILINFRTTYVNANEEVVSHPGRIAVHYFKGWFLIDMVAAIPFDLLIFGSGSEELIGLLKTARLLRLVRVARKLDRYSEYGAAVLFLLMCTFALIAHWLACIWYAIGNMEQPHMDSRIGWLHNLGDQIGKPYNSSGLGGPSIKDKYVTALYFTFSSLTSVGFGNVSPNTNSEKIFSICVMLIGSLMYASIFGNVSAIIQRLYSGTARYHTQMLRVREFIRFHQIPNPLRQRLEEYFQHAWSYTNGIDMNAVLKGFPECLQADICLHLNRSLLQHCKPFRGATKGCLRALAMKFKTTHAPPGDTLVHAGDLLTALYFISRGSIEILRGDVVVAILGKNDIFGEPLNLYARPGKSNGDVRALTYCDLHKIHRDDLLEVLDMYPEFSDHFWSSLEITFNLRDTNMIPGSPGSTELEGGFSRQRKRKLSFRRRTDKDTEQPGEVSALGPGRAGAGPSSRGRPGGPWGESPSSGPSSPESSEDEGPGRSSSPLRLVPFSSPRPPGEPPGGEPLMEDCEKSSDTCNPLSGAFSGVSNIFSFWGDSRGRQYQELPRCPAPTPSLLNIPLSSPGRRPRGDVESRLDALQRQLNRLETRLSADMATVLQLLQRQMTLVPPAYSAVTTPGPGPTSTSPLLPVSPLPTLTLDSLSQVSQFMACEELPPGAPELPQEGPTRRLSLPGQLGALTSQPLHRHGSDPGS

[13] = biological target: Voltage-dependent L-type calcium channel subunit alpha-1C (Homo sapiens, UniProt Q13936); assay: Inhibition of Cav1.2 (unknown origin)
[14] = Oral bioavailability in Wistar rat at 10 mg/kg administration; type: ADME, organism-based; conditions: in vivo
[15] = biological target: Sodium channel protein type 5 subunit alpha (Homo sapiens, UniProt Q14524); assay: Inhibition of Nav1.5 (unknown origin)
Sequence of Sodium channel protein type 5 subunit alpha (Q14524 whole entry): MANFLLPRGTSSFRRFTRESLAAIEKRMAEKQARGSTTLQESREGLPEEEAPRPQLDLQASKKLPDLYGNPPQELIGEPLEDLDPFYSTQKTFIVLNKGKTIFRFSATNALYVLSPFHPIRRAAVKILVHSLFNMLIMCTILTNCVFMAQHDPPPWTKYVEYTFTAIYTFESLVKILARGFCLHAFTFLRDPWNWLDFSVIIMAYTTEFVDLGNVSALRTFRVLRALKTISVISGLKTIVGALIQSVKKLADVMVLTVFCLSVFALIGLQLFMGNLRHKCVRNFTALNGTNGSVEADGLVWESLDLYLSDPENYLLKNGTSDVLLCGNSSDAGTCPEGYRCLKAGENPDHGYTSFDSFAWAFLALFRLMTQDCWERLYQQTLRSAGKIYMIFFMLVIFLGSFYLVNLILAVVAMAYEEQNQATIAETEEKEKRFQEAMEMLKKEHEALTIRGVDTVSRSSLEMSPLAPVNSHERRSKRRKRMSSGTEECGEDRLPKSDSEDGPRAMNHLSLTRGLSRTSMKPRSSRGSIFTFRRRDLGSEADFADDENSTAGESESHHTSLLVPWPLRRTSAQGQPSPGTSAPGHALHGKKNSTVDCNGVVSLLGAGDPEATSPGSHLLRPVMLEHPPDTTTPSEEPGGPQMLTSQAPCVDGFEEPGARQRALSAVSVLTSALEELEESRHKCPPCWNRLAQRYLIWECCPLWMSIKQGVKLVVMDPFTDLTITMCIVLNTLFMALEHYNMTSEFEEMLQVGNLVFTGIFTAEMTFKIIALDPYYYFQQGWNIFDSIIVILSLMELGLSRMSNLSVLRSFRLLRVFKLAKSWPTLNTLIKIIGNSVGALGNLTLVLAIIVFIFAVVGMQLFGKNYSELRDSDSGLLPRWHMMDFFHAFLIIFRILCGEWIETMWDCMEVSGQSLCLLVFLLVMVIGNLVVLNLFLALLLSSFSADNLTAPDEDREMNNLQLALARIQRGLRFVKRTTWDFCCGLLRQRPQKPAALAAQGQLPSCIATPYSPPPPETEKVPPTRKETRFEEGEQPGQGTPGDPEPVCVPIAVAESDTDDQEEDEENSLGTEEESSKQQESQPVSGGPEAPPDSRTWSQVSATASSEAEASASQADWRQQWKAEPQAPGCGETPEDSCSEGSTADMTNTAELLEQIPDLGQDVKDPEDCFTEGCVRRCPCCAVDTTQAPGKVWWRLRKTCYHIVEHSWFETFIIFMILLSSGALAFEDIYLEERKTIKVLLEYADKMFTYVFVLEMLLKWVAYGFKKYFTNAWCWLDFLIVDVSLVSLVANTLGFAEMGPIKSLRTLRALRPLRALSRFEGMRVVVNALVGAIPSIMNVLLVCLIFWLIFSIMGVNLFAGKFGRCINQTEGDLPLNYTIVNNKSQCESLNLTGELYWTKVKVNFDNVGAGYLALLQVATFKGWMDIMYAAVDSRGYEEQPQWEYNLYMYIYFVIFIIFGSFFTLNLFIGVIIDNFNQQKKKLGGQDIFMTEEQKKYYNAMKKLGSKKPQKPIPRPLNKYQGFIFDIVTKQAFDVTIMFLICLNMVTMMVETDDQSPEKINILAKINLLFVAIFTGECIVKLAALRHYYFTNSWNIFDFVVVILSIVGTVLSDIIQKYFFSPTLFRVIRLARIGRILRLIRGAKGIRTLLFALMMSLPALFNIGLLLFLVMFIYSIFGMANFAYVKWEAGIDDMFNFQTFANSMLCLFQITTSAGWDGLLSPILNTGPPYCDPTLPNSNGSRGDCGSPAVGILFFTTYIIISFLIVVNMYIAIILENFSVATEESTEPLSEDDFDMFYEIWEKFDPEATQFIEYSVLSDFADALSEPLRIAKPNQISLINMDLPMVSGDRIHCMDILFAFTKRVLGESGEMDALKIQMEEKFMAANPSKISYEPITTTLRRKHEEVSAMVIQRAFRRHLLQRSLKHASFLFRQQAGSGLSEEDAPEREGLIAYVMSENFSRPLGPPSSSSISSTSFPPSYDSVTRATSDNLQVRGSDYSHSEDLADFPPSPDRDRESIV

[16] = Inhibition of HCMV DNA polymerase extracted from baculovirus infected Sf21 cells using Heterodimeric nucleic acid as substrate preincubated with enzyme for 30 mins followed by substrate and dATP addition measured after 60 mins by biotinylated UTP incorporation based AlphaLISA assay; set-up: species or system Human betaherpesvirus 5
[17] = test system: Cytomegalovirus; assay: Antiviral activity against Cytomegalovirus Smith intraperitoneally infected in BALB/c mouse assessed as reduction in viral burden in spleen at 150 mg/kg,po bid administration measured after 4 days by plaque assay; type: functional, organism-based; conditions: route ip, time 4.0 day
[18] = test system: Human alphaherpesvirus 1; assay: Antiviral activity against HSV-1 F strain infected in African green monkey Vero cells assessed as reduction in viral replication incubated for 72 hrs by qRT-PCR analysis; type: functional, organism-based; conditions: Human alphaherpesvirus 1, F strain, Vero, 72 h; read-out: EC50
[19] = test system: Cytomegalovirus; assay: Antiviral activity against Cytomegalovirus Smith intraperitoneally infected in BALB/c mouse assessed as reduction in viral burden in spleen at 30 mg/kg,po bid administration measured after 4 days by plaque assay; type: functional, organism-based; conditions: route ip, time 4.0 day
[20] = test system: Cytomegalovirus; assay: Antiviral activity against Cytomegalovirus Smith intraperitoneally infected in BALB/c mouse assessed as reduction in viral burden in salivary gland at 150 mg/kg,po bid administration measured after 10 days by plaque assay; type: functional, organism-based; conditions: route ip, time 10.0 day
[21] = Unbound volume of distribution in Wistar rat at 1 mg/kg,iv or 10 mg/kg,po administration; type: ADME, organism-based; conditions: in vivo
[22] = Unbound AUC in Wistar rat at 1 mg/kg,iv or 10 mg/kg,po administration; type: ADME, organism-based; conditions: in vivo
[23] = Metabolic stability in human liver microsomes assessed as intrinsic clearance; type: ADME, Microsome; conditions: read-out: CLH
[24] = test system: Human alphaherpesvirus 1; assay: Antiviral activity against HSV-1 F strain intranasally infected in BALB/c mouse assessed as increase in mouse survival rate at 150 mg/kg,po bid administrated 2 days before viral infection measured after 2 days; type: functional, organism-based; conditions: time 2.0 day
[25] = test system: Human alphaherpesvirus 2; assay: Antiviral activity against HSV-2 G strain infected in African green monkey Vero cells assessed as reduction in viral replication incubated for 72 hrs by qRT-PCR analysis; type: functional, organism-based; conditions: Human alphaherpesvirus 2, G strain, Vero, 72 h; read-out: EC50
[26] = test system: Human alphaherpesvirus 1; assay: Antiviral activity against HSV-1 F strain intranasally infected in BALB/c mouse assessed as increase in mouse survival at po bid administration for 7 days; type: functional, organism-based; conditions: time 7.0 day
[27] = test system: Human alphaherpesvirus 1; assay: Antiviral activity against HSV-1 F strain intranasally infected in BALB/c mouse assessed as reduction in viral burden in brain at 30 to 150 mg/kg,po bid administration measured after 4 days by plaque assay; type: functional, organism-based; conditions: dose 30-150 mg/kg, time 4.0 day
[28] = Unbound fraction in Wistar rat plasma at 1 mg/kg,iv or 10 mg/kg,po administration; type: ADME, organism-based

With COc1cc(NC(=O)Cc2ccc(C(F)(F)F)cc2)ccc1C[C@H]1COC(=O)N1 the CL free [1] was 187 mL/min/kg, the Activity [2] was “Active” and the IC50 [3] was 13 nM. The Activity [4] was “Active”, the EC50 [5] was 641 nM and the EC50 [6] was 126 nM. For the same molecule, the MRT [7] was 1.8 h, the survival at 150 mg/kg [8] was 100% and the Activity [9] was “inactive”. It also gave a solubility [10] of 129 µM (≈ 52.7 µg/mL), an IC50 [11] of 25100 nM and an IC50 [12] of 27000 nM. The IC50 [13] was 7600 nM, the bioavailability [14] was 71% and the IC50 [15] was 13200 nM. For the same molecule, the IC50 [16] was 22 nM, the Activity [17] was “Active” and the EC50 [18] was 115 nM. For the same molecule, the Activity [19] was “inactive”, the Activity [20] was “Active” and the Vdu [21] was 20 L/kg. For the same molecule, the fAUC [22] was 0.222 µM·h, the CLint scaled [23] was 20 mL/min/kg and the Activity [24] was “Active”. The EC50 [25] was 114 nM, the Activity [26] was “Dose-Dependent Effect” and the Activity [27] was “Active”. For the same molecule, the fraction unbound [28] was 0.052.
